Reference: patent US6605424B1, “Method of detecting inhibitors of agonist-specific desensitization” (Duke University, priority 1989, dated 2003)
Values joined by “and” are separate entries in the source; they are usually repeats but may differ in a detail not shown here. Equal values may be shown once. Read-outs that look alike come from different tables or passages of the source.

Experiments:
[1] = system: β2ARs in intact A431 cells; assay: Desensitization of β2ARs in intact A431 cells; type: cell-based, human; conditions: data not shown
βAR kinase = target: T1, βAR kinase (Bos taurus, UniProt P21146); assay: Phosphorylation of purified reconstituted β2ARs by purified βAR kinase (Example II); type: biochemical, bovine; conditions: for IC50: 50 μM (−)-isoproterenol, read-out: IC50, inhibition of phosphorylation of reconstituted β2ARs by βAR kinase
T1 construct: βAR kinase was purified from bovine cerebral cortex; from tissue; host or cells: bovine cerebral cortex
T1 sequence (P21146 1-689): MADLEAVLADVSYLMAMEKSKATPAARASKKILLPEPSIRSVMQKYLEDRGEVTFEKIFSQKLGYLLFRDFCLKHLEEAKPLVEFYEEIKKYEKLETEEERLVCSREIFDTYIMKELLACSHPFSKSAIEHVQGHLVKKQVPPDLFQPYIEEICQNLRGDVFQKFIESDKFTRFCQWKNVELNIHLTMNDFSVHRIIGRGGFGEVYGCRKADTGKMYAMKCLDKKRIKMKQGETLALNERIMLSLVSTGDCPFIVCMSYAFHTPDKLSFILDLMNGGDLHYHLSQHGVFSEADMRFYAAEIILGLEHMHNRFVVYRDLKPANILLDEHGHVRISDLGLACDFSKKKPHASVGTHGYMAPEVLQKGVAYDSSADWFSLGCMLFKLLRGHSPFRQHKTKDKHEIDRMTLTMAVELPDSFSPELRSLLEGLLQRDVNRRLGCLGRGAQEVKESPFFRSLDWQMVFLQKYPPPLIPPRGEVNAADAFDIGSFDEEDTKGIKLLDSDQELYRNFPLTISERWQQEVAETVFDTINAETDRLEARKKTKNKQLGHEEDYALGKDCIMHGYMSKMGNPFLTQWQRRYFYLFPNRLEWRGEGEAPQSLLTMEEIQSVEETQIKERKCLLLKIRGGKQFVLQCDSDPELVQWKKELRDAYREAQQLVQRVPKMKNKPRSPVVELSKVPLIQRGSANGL
Description: FIG. 7. […] (Inset) Relevant section of a representative autoradiogram. Data are means±SEM of three independent experiments. […] Desensitization was measured as the percent loss of stimulation by 10 μM (−)-isoproterenol of adenylyl cyclase activity in membranes. […] Data are means±SEM of four independent experiments.
Purified β2ARs were inserted into phosphatidylcholine vesicles by chromatography on Extracti-gel, followed by polyethylene glycol treatment and centrifugation at 280,000×g for 90 min (Cerione et al (1984) Biochemistry 23:4519-4525). Phosphorylation of the reconstituted receptors by purified βAR kinase was done in the presence of 50 μM (−)-isoproterenol as described (Benovic et al (1987) J. Biol. Chem. 262:9026-9032). Subsequently, the samples were subjected to sodium dodecyl sulfate polyacrylamide gel electrophoresis on 10% gels (Laemmli (1970) Nature 227:680-685). The phosphorylated β2ARs were visualized by autoradiography, and the corresponding bands were cut out and their content of ^32P quantified.

[2] = system: β2ARs in permeabilized A431 cells; assay: Desensitization of β2ARs in permeabilized A431 cells; type: cell-based, human
Description: Permeabilization of cells was accomplished as follows. Human epidermoid carcinoma A431 cells were grown to about 95% confluence in Dulbecco's modified Eagle's medium supplemented with 10% fetal calf serum. Cells were harvested with collagenase, washed three times with calcium-free phosphate-buffered saline (PBS), then washed twice in 150 mM potassium glutamate/10 mM Hepes/5 mM EGTA/7 mM MgCl2, pH 7.1 (KG buffer), and finally resuspended in KG buffer supplemented with 5 mM glucose and 2 mM ATP (KG-A buffer) at a density of 4×10^7 cells per ml.
At 4×10^7 cells per ml, about 0.015% digitonin was necessary to achieve permeabilization of >95% cells as assessed by staining with trypan blue. In all experiments, digitonin was added stepwise until >95% of the cells were trypan blue positive.

[3] = system: β2ARs in permeabilized A431 cells; assay: Phosphorylation of β2ARs in permeabilized A431 cells; type: cell-based, human; conditions: 1 μM heparin
Description: FIG. 8. Phosphorylation of β2ARs in permeabilized A431 cells. […] FIG. 8A: Autoradiogram obtained after a 10-day exposure at −70° C. FIG. 8B: Transverse densitometric scan of the autoradiogram.
β2ARs in permeabilized A431 cells were phosphorylated as follows. Permeabilized cells (4×10^8) in 10 ml of KG-A buffer containing 1 mCi (1 Ci=37 GBq) of [γ-^32P]ATP were incubated with or without 1 μM (−)-isoproterenol (and other compounds as indicated) for 10 min at 37° C. All buffers used in these experiments contained 5 μg of soybean tryspin inhibitor, 5 μg of leupeptin, and 10 μg of benzamidine per ml and 0.1 mM phenylmethylsulfonyl fluoride. […] After three identical washing steps, crude membranes were prepared as above.
Aliquots of the samples (≈60 fmol of β2ARs) were desalted over Sephadex G-50 and incubated for 2 hr at 20° C. with 200 pM of the ligand with or without 10 μM alprenolol. Free ligand was removed by desalting as above, and the samples were irradiated with UV light for 3 min. The samples were loaded on the same gel as the samples described above.

- Inhibition of βAR kinase, % (βAR kinase; 0.1 μM): 96 ± 1%
- IC50 (βAR kinase; listed as heparin): 6.1 ± 2 nM
- IC50 (βAR kinase): 6 nM
- extent of inhibition of β2AR phosphorylation (βAR kinase; at 30-100 nM): almost complete inhibition
Substance: heparin
- effect on desensitization in intact cells [1]: Neither compound affected desensitization
- Inhibition of Desensitization, % ([2]; 0.1 μM): 102 ± 16%
- effect on time course of desensitization ([2]; 100 nM heparin, 1 μM (−)-isoproterenol): almost completely abolished
- IC50 ([2]; 1 μM (−)-isoproterenol, 10 min, 37° C., read-out: IC50, inhibition of desensitization): 21 nM and 20 nM
- extent of inhibition of desensitization ([2]; at concentrations above 100 nM): virtually complete
- effect on basal phosphorylation of β2ARs [3]: not affecting basal phosphorylation
- reduction of isoproterenol-induced phosphorylation of β2ARs ([3]; 1 μM isoproterenol, 10 min, three experiments): 50-80%
